Results published in ChEMBL document CHEMBL1146205, “Isatin sulfonamide analogs containing a Michael addition acceptor: a new class of caspase 3/7 inhibitors” (J Med Chem, 2007).

Target: T1, Caspase-7 (Homo sapiens, UniProt P55210)
T1 sequence (P55210 whole entry): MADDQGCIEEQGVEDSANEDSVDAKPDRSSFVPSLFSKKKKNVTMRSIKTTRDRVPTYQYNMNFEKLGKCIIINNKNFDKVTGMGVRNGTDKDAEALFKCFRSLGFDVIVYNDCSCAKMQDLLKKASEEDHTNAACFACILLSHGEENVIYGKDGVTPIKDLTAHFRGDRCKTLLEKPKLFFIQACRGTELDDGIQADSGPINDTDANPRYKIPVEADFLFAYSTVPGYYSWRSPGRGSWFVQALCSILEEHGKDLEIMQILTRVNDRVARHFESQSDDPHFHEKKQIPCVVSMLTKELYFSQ
Experiment: Inhibition of human recombinant caspase 7
Details: not given

| IC50 [nM] | SMILES |
| --- | --- |
| 1590 | N#CC(C#N)=C1C(=O)Nc2ccc(S(=O)(=O)N3CCC[C@H]3COc3ccccc3)cc21 |
| 28.3 | N#CC(C#N)=C1C(=O)N(Cc2ccc(O)cc2)c2ccc(S(=O)(=O)N3CCC[C@H]3COc3cccnc3)cc21 |
| 126 | N#CC(C#N)=C1C(=O)N(Cc2ccc(O)cc2)c2ccc(S(=O)(=O)N3CCC[C@H]3COc3ccccc3)cc21 |
| 92.2 | N#CC(C#N)=C1C(=O)N(Cc2ccc(Br)cc2)c2ccc(S(=O)(=O)N3CCC[C@H]3COc3ccccc3)cc21 |
| 29.6 | COc1ccc(CN2C(=O)C(=C(C#N)C#N)c3cc(S(=O)(=O)N4CCC[C@H]4COc4cccnc4)ccc32)cc1 |
| 51.7 | N#CC(C#N)=C1C(=O)N(Cc2ccccc2)c2ccc(S(=O)(=O)N3CCC[C@H]3COc3ccccc3)cc21 |

Target: T2, Caspase-1 (Homo sapiens, UniProt P29466)
T2 sequence (P29466 whole entry): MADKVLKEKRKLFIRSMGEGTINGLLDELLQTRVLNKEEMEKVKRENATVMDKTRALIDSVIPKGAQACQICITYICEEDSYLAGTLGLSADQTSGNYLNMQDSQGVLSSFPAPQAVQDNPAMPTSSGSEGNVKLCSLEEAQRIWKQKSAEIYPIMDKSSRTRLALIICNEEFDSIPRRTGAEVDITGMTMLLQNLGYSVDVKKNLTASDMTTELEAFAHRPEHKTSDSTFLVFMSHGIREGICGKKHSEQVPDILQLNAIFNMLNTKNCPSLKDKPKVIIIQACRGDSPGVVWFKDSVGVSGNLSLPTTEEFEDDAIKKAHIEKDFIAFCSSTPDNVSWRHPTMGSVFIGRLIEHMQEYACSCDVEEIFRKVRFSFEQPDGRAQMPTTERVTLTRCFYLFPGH
Experiment: Inhibition of human recombinant caspase 1
Details: not given

| IC50 [nM] | SMILES |
| --- | --- |
| 1830 | N#CC(C#N)=C1C(=O)Nc2ccc(S(=O)(=O)N3CCC[C@H]3COc3ccccc3)cc21 |
| 2720 | N#CC(C#N)=C1C(=O)N(Cc2ccc(O)cc2)c2ccc(S(=O)(=O)N3CCC[C@H]3COc3cccnc3)cc21 |
| 2300 | N#CC(C#N)=C1C(=O)N(Cc2ccc(O)cc2)c2ccc(S(=O)(=O)N3CCC[C@H]3COc3ccccc3)cc21 |
| 5700 | N#CC(C#N)=C1C(=O)N(Cc2ccc(Br)cc2)c2ccc(S(=O)(=O)N3CCC[C@H]3COc3ccccc3)cc21 |
| 3900 | COc1ccc(CN2C(=O)C(=C(C#N)C#N)c3cc(S(=O)(=O)N4CCC[C@H]4COc4cccnc4)ccc32)cc1 |
| 6220 | N#CC(C#N)=C1C(=O)N(Cc2ccccc2)c2ccc(S(=O)(=O)N3CCC[C@H]3COc3ccccc3)cc21 |

Target: T3, Caspase-6 (Homo sapiens, UniProt P55212)
T3 sequence (P55212 whole entry): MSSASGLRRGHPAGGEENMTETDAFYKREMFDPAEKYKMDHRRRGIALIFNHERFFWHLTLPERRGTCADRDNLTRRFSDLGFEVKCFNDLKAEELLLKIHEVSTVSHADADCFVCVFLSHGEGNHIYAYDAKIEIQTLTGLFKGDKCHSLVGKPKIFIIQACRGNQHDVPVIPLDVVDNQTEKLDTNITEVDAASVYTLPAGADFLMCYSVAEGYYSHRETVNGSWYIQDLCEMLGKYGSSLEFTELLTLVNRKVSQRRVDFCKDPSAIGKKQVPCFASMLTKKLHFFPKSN
Experiment: Inhibition of human recombinant caspase 6
Details: not given

| IC50 [nM] | SMILES |
| --- | --- |
| 407 | N#CC(C#N)=C1C(=O)Nc2ccc(S(=O)(=O)N3CCC[C@H]3COc3ccccc3)cc21 |
| 650 | N#CC(C#N)=C1C(=O)N(Cc2ccc(O)cc2)c2ccc(S(=O)(=O)N3CCC[C@H]3COc3cccnc3)cc21 |
| 744 | N#CC(C#N)=C1C(=O)N(Cc2ccc(O)cc2)c2ccc(S(=O)(=O)N3CCC[C@H]3COc3ccccc3)cc21 |
| 840 | N#CC(C#N)=C1C(=O)N(Cc2ccc(Br)cc2)c2ccc(S(=O)(=O)N3CCC[C@H]3COc3ccccc3)cc21 |
| 610 | COc1ccc(CN2C(=O)C(=C(C#N)C#N)c3cc(S(=O)(=O)N4CCC[C@H]4COc4cccnc4)ccc32)cc1 |
| 918 | N#CC(C#N)=C1C(=O)N(Cc2ccccc2)c2ccc(S(=O)(=O)N3CCC[C@H]3COc3ccccc3)cc21 |

Test system: not listed separately
Experiment: Partition coefficient of the compound, log P
Assay type: physicochemical
Details: octanol/water

| logP | SMILES |
| --- | --- |
| 4.19 | O=C1C(=O)N(Cc2ccc(OCCF)cc2)c2ccc(S(=O)(=O)N3CCC[C@H]3COc3ccccc3)cc21 |
| 1.07 | N#CC(C#N)=C1C(=O)Nc2ccc(S(=O)(=O)N3CCC[C@H]3COc3ccccc3)cc21 |
| 1.77 | N#CC(C#N)=C1C(=O)N(Cc2ccc(O)cc2)c2ccc(S(=O)(=O)N3CCC[C@H]3COc3cccnc3)cc21 |
| 2.77 | N#CC(C#N)=C1C(=O)N(Cc2ccc(O)cc2)c2ccc(S(=O)(=O)N3CCC[C@H]3COc3ccccc3)cc21 |
| 4.28 | N#CC(C#N)=C1C(=O)N(Cc2ccc(Br)cc2)c2ccc(S(=O)(=O)N3CCC[C@H]3COc3ccccc3)cc21 |
| 2.36 | COc1ccc(CN2C(=O)C(=C(C#N)C#N)c3cc(S(=O)(=O)N4CCC[C@H]4COc4cccnc4)ccc32)cc1 |
| 3.5 | N#CC(C#N)=C1C(=O)N(Cc2ccccc2)c2ccc(S(=O)(=O)N3CCC[C@H]3COc3ccccc3)cc21 |

Target: Caspase-8 (Homo sapiens, UniProt Q14790)
Sequence (Q14790 217-374 limits assumed): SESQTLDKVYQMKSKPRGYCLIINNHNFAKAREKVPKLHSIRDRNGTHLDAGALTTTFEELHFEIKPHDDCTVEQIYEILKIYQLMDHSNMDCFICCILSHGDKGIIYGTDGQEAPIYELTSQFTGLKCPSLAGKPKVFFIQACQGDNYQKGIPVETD
Sequence (Q14790 385-479 limits assumed): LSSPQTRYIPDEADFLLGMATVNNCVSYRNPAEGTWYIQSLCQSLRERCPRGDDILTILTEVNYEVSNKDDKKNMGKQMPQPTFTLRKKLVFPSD
Experiment: Inhibition of human recombinant caspase 8
Details: not given

| IC50 [nM] | SMILES |
| --- | --- |
| > 50000 | N#CC(C#N)=C1C(=O)Nc2ccc(S(=O)(=O)N3CCC[C@H]3COc3ccccc3)cc21 |
| > 50000 | N#CC(C#N)=C1C(=O)N(Cc2ccc(O)cc2)c2ccc(S(=O)(=O)N3CCC[C@H]3COc3cccnc3)cc21 |
| > 50000 | N#CC(C#N)=C1C(=O)N(Cc2ccc(O)cc2)c2ccc(S(=O)(=O)N3CCC[C@H]3COc3ccccc3)cc21 |
| > 50000 | N#CC(C#N)=C1C(=O)N(Cc2ccc(Br)cc2)c2ccc(S(=O)(=O)N3CCC[C@H]3COc3ccccc3)cc21 |
| > 50000 | COc1ccc(CN2C(=O)C(=C(C#N)C#N)c3cc(S(=O)(=O)N4CCC[C@H]4COc4cccnc4)ccc32)cc1 |
| > 50000 | N#CC(C#N)=C1C(=O)N(Cc2ccccc2)c2ccc(S(=O)(=O)N3CCC[C@H]3COc3ccccc3)cc21 |

Target: T4, Caspase-3 (Homo sapiens, UniProt P42574)
T4 sequence (P42574 whole entry): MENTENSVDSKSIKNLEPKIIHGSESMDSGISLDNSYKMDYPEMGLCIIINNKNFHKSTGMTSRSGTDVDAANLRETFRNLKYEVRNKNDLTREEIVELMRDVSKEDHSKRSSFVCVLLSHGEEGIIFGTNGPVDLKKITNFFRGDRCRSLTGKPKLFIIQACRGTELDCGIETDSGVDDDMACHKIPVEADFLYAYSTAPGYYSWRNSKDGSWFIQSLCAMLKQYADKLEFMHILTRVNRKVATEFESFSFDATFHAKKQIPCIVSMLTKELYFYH
Experiment: Inhibition of human recombinant caspase 3
Details: not given

| IC50 [nM] | SMILES |
| --- | --- |
| 272 | N#CC(C#N)=C1C(=O)Nc2ccc(S(=O)(=O)N3CCC[C@H]3COc3ccccc3)cc21 |
| 7.8 | N#CC(C#N)=C1C(=O)N(Cc2ccc(O)cc2)c2ccc(S(=O)(=O)N3CCC[C@H]3COc3cccnc3)cc21 |
| 31.8 | N#CC(C#N)=C1C(=O)N(Cc2ccc(O)cc2)c2ccc(S(=O)(=O)N3CCC[C@H]3COc3ccccc3)cc21 |
| 20.1 | N#CC(C#N)=C1C(=O)N(Cc2ccc(Br)cc2)c2ccc(S(=O)(=O)N3CCC[C@H]3COc3ccccc3)cc21 |
| 7.8 | COc1ccc(CN2C(=O)C(=C(C#N)C#N)c3cc(S(=O)(=O)N4CCC[C@H]4COc4cccnc4)ccc32)cc1 |
| 27.8 | N#CC(C#N)=C1C(=O)N(Cc2ccccc2)c2ccc(S(=O)(=O)N3CCC[C@H]3COc3ccccc3)cc21 |
